Target: T1, human recombinant HDAC6 (Homo sapiens, UniProt Q9UBN7)
T1 construct: purchased Calbiochem 382180
T1 sequence (Q9UBN7 1-1215): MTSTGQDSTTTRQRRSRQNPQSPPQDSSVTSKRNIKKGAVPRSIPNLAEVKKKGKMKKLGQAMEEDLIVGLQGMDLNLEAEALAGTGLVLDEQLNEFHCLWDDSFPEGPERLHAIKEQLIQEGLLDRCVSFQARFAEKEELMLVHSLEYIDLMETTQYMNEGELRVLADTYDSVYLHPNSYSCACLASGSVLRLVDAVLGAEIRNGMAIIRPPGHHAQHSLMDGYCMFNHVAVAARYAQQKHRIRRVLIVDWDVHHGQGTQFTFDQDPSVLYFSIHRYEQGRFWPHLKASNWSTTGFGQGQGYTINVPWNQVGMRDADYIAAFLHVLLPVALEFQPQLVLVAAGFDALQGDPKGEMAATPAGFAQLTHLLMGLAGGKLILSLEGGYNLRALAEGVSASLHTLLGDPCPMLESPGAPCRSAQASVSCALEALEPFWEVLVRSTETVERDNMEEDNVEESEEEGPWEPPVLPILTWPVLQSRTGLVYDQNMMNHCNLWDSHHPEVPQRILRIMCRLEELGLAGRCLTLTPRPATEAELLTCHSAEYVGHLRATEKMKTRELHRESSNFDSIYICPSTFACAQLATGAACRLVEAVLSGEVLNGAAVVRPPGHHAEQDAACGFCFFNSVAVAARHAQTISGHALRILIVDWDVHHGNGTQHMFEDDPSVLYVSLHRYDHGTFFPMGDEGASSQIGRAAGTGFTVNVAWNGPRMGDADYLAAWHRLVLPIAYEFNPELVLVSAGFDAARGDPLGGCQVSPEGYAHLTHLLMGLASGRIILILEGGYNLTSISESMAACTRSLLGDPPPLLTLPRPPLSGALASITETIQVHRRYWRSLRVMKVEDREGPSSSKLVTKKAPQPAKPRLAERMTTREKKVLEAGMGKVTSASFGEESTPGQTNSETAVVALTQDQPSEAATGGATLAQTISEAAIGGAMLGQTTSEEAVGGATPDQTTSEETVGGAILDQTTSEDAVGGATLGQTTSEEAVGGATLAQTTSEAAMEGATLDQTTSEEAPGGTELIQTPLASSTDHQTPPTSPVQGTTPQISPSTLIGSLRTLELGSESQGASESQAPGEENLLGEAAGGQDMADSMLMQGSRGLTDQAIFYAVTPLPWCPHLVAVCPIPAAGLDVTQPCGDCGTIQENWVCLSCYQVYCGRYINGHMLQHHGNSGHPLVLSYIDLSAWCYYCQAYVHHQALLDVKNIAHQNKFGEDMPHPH
Assay: HDAC6 enzyme activity inhibition assay (HDAC Fluorimetric Drug Discovery Kit)
Assay type: biochemical
Details: for HDAC6 selectivity (fold): HDAC6 over HDAC1; for IC50: human recombinant HDAC6, same protocol as HDAC1, read-out: HDAC6
How it was run: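 Fluorimetric deacetylase assay: 5-fold serial compound dilutions, 0.3 μg recombinant human enzyme (HDAC1 or HDAC6, same protocol), 10 μM Fluor de Lys-SIRT1 substrate, 60 min at 30 °C. Signal developed 30 min, measured at 360/460 nm; IC50 values derived.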

| Structure (SMILES) | HDAC6 selectivity (fold) | IC50 [nM] |
| --- | --- | --- |
| O=C(NCCN1CCN(CCO)CC1)N(Cc1ccc(-c2nnc(C(F)F)o2)cc1F)c1ccccc1 [Compound 21996, 1-(4-(5-(Difluoromethyl)-1,3,4-oxadiazol-2-yl)-2-fluorobenzyl)-3-(2-(4-(2-hydroxyethyl)piperazin-1-yl)ethyl)-1-phenylurea] | 108 | 92 |
| COCCN1CCN(CCNC(=O)N(Cc2ccc(-c3nnc(C(F)F)o3)cc2F)c2ccccc2)CC1 [Compound 21997, 1-(4-(5-(Difluoromethyl)-1,3,4-oxadiazol-2-yl)-2-fluorobenzyl)-3-(2-(4-(2-methoxyethyl)piperazin-1-yl)ethyl)-1-phenylurea] | 109 | 91 |
| O=C(NCCN1CCN(CCCO)CC1)N(Cc1ccc(-c2nnc(C(F)F)o2)cc1F)c1ccccc1 [Compound 21998, 1-(4-(5-(Difluoromethyl)-1,3,4-oxadiazol-2-yl)-2-fluorobenzyl)-3-(2-(4-(3-hydroxypropyl)piperazin-1-yl)ethyl)-1-phenylurea] | 153 | 66 |
| CC(=O)N1CCCN(CCNC(=O)N(Cc2ccc(-c3nnc(C(F)F)o3)cc2F)c2ccccc2)CC1 [Compound 21999, 3-(2-(4-Acetyl-1,4-diazepan-1-yl)ethyl)-1-(4-(5-(difluoromethyl)-1,3,4-oxadiazol-2-yl)-2-fluorobenzyl)-1-phenylurea] | 85 | 117 |
| O=C(NCCN1CCCN(Cc2ccccc2)CC1)N(Cc1ccc(-c2nnc(C(F)F)o2)cc1F)c1ccccc1 [Compound 22000, 3-(2-(4-Benzyl-1,4-diazepan-1-yl)ethyl)-1-(4-(5-(difluoromethyl)-1,3,4-oxadiazol-2-yl)-2-fluorobenzyl)-1-phenylurea] | 61 | 165 |
| O=C(C1CC1)N1CCN(CCNC(=O)N(Cc2ccc(-c3nnc(C(F)F)o3)cc2F)c2ccccc2)CC1 [Compound 22001, 3-(2-(4-(Cyclopropanecarbonyl)piperazin-1-yl)ethyl)-1-(4-(5-(difluoromethyl)-1,3,4-oxadiazol-2-yl)-2-fluorobenzyl)-1-phenylurea] | 116 | 87 |
| CN(C)CCCN1CCN(CCNC(=O)N(Cc2ccc(-c3nnc(C(F)F)o3)cc2F)c2ccccc2)CC1 [Compound 22002, 1-(4-(5-(Difluoromethyl)-1,3,4-oxadiazol-2-yl)-2-fluorobenzyl)-3-(2-(4-(3-(dimethylamino)propyl)piperazin-1-yl)ethyl)-1-phenylurea] | 85 | 118 |
| O=C(NCCN1CCC(N2CCOCC2)CC1)N(Cc1ccc(-c2nnc(C(F)F)o2)cc1F)c1ccccc1 [Compound 22003, 1-(4-(5-(Difluoromethyl)-1,3,4-oxadiazol-2-yl)-2-fluorobenzyl)-3-(2-(4-morpholinopiperidin-1-yl)ethyl)-1-phenylurea] | 99 | 101 |
| O=C(NCCN1CCC(Cc2ccccc2)CC1)N(Cc1ccc(-c2nnc(C(F)F)o2)cc1F)c1ccccc1 [Compound 22004, 3-(2-(4-Benzylpiperidin-1-yl)ethyl)-1-(4-(5-(difluoromethyl)-1,3,4-oxadiazol-2-yl)-2-fluorobenzyl)-1-phenylurea] | 24 | 412 |
| Cc1noc(C2CCN(CCNC(=O)N(Cc3ccc(-c4nnc(C(F)F)o4)cc3F)c3ccccc3)CC2)n1 [Compound 22005, 1-(4-(5-(Difluoromethyl)-1,3,4-oxadiazol-2-yl)-2-fluorobenzyl)-3-(2-(4-(3-methyl-1,2,4-oxadiazol-5-yl)piperidin-1-yl)ethyl)-1-phenylurea] | 79 | 126 |
| CCN(CCNC(=O)N(Cc1ccc(-c2nnc(C(F)F)o2)cc1F)c1ccccc1)Cc1ccccc1 [Compound 22006, 3-(2-(Benzyl(ethyl)amino)ethyl)-1-(4-(5-(difluoromethyl)-1,3,4-oxadiazol-2-yl)-2-fluorobenzyl)-1-phenylurea] | 37 | 270 |
| O=C(NCCN1CCN(c2ccccc2)CC1)N(Cc1ccc(-c2nnc(C(F)F)o2)cc1F)c1ccccc1 [Compound 22007, 1-(4-(5-(Difluoromethyl)-1,3,4-oxadiazol-2-yl)-2-fluorobenzyl)-1-phenyl-3-(2-(4-phenylpiperazin-1-yl)ethyl)urea] | 40 | 249 |
| O=C(NCCN1CCN(c2ccccn2)CC1)N(Cc1ccc(-c2nnc(C(F)F)o2)cc1F)c1ccccc1 [Compound 22008, 1-(4-(5-(Difluoromethyl)-1,3,4-oxadiazol-2-yl)-2-fluorobenzyl)-1-phenyl-3-(2-(4-(pyridin-2-yl)piperazin-1-yl)ethyl)urea] | 73 | 138 |
| O=C(NCCN1CCN(c2ccncc2)CC1)N(Cc1ccc(-c2nnc(C(F)F)o2)cc1F)c1ccccc1 [Compound 22009, 1-(4-(5-(Difluoromethyl)-1,3,4-oxadiazol-2-yl)-2-fluorobenzyl)-1-phenyl-3-(2-(4-(pyridin-4-yl)piperazin-1-yl)ethyl)urea] | 97 | 103 |
| O=C(NCCN1CCN(c2ccc(F)cc2)CC1)N(Cc1ccc(-c2nnc(C(F)F)o2)cc1F)c1ccccc1 [Compound 22010, 1-(4-(5-(Difluoromethyl)-1,3,4-oxadiazol-2-yl)-2-fluorobenzyl)-3-(2-(4-(4-fluorophenyl)piperazin-1-yl)ethyl)-1-phenylurea] | 29 | 341 |
| O=C(NCCN1CCN(c2noc3ccccc23)CC1)N(Cc1ccc(-c2nnc(C(F)F)o2)cc1F)c1ccccc1 [Compound 22011, 3-(2-(4-(Benzo[d]isoxazol-3-yl)piperazin-1-yl)ethyl)-1-(4-(5-(difluoromethyl)-1,3,4-oxadiazol-2-yl)-2-fluorobenzyl)-1-phenylurea] | 31 | 320 |
| O=C(NCCN1CCN(c2ccc(Cl)c(Cl)c2)CC1)N(Cc1ccc(-c2nnc(C(F)F)o2)cc1F)c1ccccc1 [Compound 22012, 3-(2-(4-(3,4-Dichlorophenyl)piperazin-1-yl)ethyl)-1-(4-(5-(difluoromethyl)-1,3,4-oxadiazol-2-yl)-2-fluorobenzyl)-1-phenylurea] | 10 | 1020 |
| O=C(NCCN1CCN(Cc2ccccc2)CC1)N(Cc1ccc(-c2nnc(C(F)F)o2)cc1F)c1ccccc1 [Compound 22013, 3-(2-(4-Benzylpiperazin-1-yl)ethyl)-1-(4-(5-(difluoromethyl)-1,3,4-oxadiazol-2-yl)-2-fluorobenzyl)-1-phenylurea] | 51 | 197 |
| O=C(NCCN1CCN(CCc2ccccc2)CC1)N(Cc1ccc(-c2nnc(C(F)F)o2)cc1F)c1ccccc1 [Compound 22014, 1-(4-(5-(Difluoromethyl)-1,3,4-oxadiazol-2-yl)-2-fluorobenzyl)-3-(2-(4-phenethylpiperazin-1-yl)ethyl)-1-phenylurea] | 46 | 219 |
| O=C(NCCN1CCN(CCc2ccncc2)CC1)N(Cc1ccc(-c2nnc(C(F)F)o2)cc1F)c1ccccc1 [Compound 22015, 1-(4-(5-(Difluoromethyl)-1,3,4-oxadiazol-2-yl)-2-fluorobenzyl)-1-phenyl-3-(2-(4-(2-(pyridin-4-yl)ethyl)piperazin-1-yl)ethyl)urea] | 105 | 95 |
| O=C(NCCN1CCN(C/C=C/c2ccccc2)CC1)N(Cc1ccc(-c2nnc(C(F)F)o2)cc1F)c1ccccc1 [Compound 22016, 3-(2-(4-Cinnamylpiperazin-1-yl)ethyl)-1-(4-(5-(difluoromethyl)-1,3,4-oxadiazol-2-yl)-2-fluorobenzyl)-1-phenylurea] | 42 | 237 |
| O=C(NCCN(Cc1ccccc1)Cc1ccccc1)N(Cc1ccc(-c2nnc(C(F)F)o2)cc1F)c1ccccc1 [Compound 22017, 3-(2-(Dibenzylamino)ethyl)-1-(4-(5-(difluoromethyl)-1,3,4-oxadiazol-2-yl)-2-fluorobenzyl)-1-phenylurea] | 7 | 1380 |

From patent US10717716B2, “1,3,4-oxadiazole derivative compounds as histone deacetylase 6 inhibitor, and the pharmaceutical composition comprising the same” (Chong Kun Dang Pharmaceutical Corp., priority 2015, dated 2020)
